Several values for one entry are separate records, joined by “and”; a condition that tells them apart may be missing. Equal values may be shown once. Toxic doses and inconclusive results are not listed. Rule as the data show it: active = T/C of 150% or more; inactive = T/C below 125%.
System: L1210 leukemia ip in BDF1 mice, survival T/C
Assay: NCI In Vivo Anticancer Drug Screen. Data for tumor model L1210 Leukemia (intraperitoneal) in B6D2F1 (BDF1) mice
Conditions: endpoint: mean survival time, higher = longer survival
Procedure, shortened: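 Mice bearing the transplanted tumor received compound or vehicle. Survival of the treated group was divided by that of the vehicle-treated control group to give the ratio.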

[1] = dose: 100.0 mg/kg/injection, schedule: Q04DX003 (ip), vehicle: saline
[2] = dose: 200.0 mg/kg/injection, schedule: Q04DX003 (ip), vehicle: saline
[3] = dose: 400.0 mg/kg/injection, schedule: Q04DX003 (ip), vehicle: saline
[4] = dose: 100.0 mg/kg/injection, schedule: Q01DX009 (ip), vehicle: Klucel (hydroxypropylcellulose) (HPC)
[5] = dose: 100.0 mg/kg/injection, schedule: Q04DX003 (ip), vehicle: saline with Tween-80
[6] = dose: 200.0 mg/kg/injection, schedule: Q01DX009 (ip), vehicle: Klucel (hydroxypropylcellulose) (HPC)
[7] = dose: 200.0 mg/kg/injection, schedule: Q04DX003 (ip), vehicle: saline with Tween-80
[8] = dose: 400.0 mg/kg/injection, schedule: Q01DX009 (ip), vehicle: Klucel (hydroxypropylcellulose) (HPC)
[9] = dose: 400.0 mg/kg/injection, schedule: Q04DX003 (ip), vehicle: saline with Tween-80

Measured: T/C

Cc1ccc(Cl)cc1NC(=O)N(C)C1CCCCC1
inactive: dose: 100.0 mg/kg/injection, schedule: Q01DX001 (ip), vehicle: saline with Tween-80 101 % of control | dose: 100.0 mg/kg/injection, schedule: Q01DX009 (ip), vehicle: saline with Tween-80 94 % of control and 120 % of control | dose: 100.0 mg/kg/injection, schedule: Q04DX002 (ip), vehicle: saline with Tween-80 104 % of control and 106 % of control | [1] 97 % of control | dose: 200.0 mg/kg/injection, schedule: Q01DX001 (ip), vehicle: saline with Tween-80 106 % of control | dose: 200.0 mg/kg/injection, schedule: Q01DX009 (ip), vehicle: saline with Tween-80 96 % of control and 113 % of control | dose: 200.0 mg/kg/injection, schedule: Q04DX002 (ip), vehicle: saline with Tween-80 98 % of control and 109 % of control | [2] 111 % of control | dose: 400.0 mg/kg/injection, schedule: Q01DX001 (ip), vehicle: saline with Tween-80 98 % of control | dose: 400.0 mg/kg/injection, schedule: Q01DX009 (ip), vehicle: saline with Tween-80 100 % of control and 110 % of control | dose: 400.0 mg/kg/injection, schedule: Q04DX002 (ip), vehicle: saline with Tween-80 95 % of control and 112 % of control | [3] 90 % of control

NC(=O)/C(=C\c1ccncc1)c1cccc2ccccc12
inactive: [4] 97 % of control | [5] 108 % of control | [6] 97 % of control | [7] 88 % of control

Nc1ccc(O)c2c1C(=O)c1ccccc1C2=O
inactive: [4] 103 % of control | dose: 100.0 mg/kg/injection, schedule: Q04DX002 (ip), vehicle: Klucel (hydroxypropylcellulose) (HPC) 104 % of control | [6] 92 % of control | dose: 200.0 mg/kg/injection, schedule: Q04DX002 (ip), vehicle: Klucel (hydroxypropylcellulose) (HPC) 115 % of control | [8] 96 % of control | dose: 400.0 mg/kg/injection, schedule: Q04DX002 (ip), vehicle: Klucel (hydroxypropylcellulose) (HPC) 100 % of control

O=[N+]([O-])c1ccc2[nH]c(=S)[nH]c2c1
inactive: [1] 98 % of control | [2] 103 % of control | [3] 95 % of control

O=C(Nc1ccc(Cl)c(Cl)c1)O/N=C\c1c(Cl)ccc([N+](=O)[O-])c1Cl
inactive: dose: 100.0 mg/kg/injection, schedule: Q01DX001 (ip), vehicle: saline 102 % of control | dose: 200.0 mg/kg/injection, schedule: Q01DX001 (ip), vehicle: saline 107 % of control | dose: 400.0 mg/kg/injection, schedule: Q01DX001 (ip), vehicle: saline 102 % of control

NC(=O)C1C2C=CC(CC2)C1C(N)=O (configuration not stated)
inactive: [5] 91 % of control | [7] 96 % of control | [9] 91 % of control

O=C(c1ccccc1)c1c[nH]c2c(O)ccc(O)c12
inactive: dose: 12.5 mg/kg/injection, schedule: Q04DX002 (ip), vehicle: Klucel (hydroxypropylcellulose) (HPC) 91 % of control | dose: 25.0 mg/kg/injection, schedule: Q04DX002 (ip), vehicle: Klucel (hydroxypropylcellulose) (HPC) 95 % of control | dose: 50.0 mg/kg/injection, schedule: Q04DX002 (ip), vehicle: Klucel (hydroxypropylcellulose) (HPC) 95 % of control

N#CC1c2ccccc2CCN1C(=O)c1ccccc1 (configuration not stated)
inactive: dose: 100.0 mg/kg/injection, schedule: Q01DX001 (ip), vehicle: carboxymethylcellulose (CMC) 98 % of control | dose: 200.0 mg/kg/injection, schedule: Q01DX001 (ip), vehicle: carboxymethylcellulose (CMC) 98 % of control | dose: 400.0 mg/kg/injection, schedule: Q01DX001 (ip), vehicle: carboxymethylcellulose (CMC) 93 % of control

Cc1c(Cl)cccc1NC(=O)Nc1ccccc1Cl
inactive: [4] 104 % of control | dose: 100.0 mg/kg/injection, schedule: Q04DX003 (ip), vehicle: Klucel (hydroxypropylcellulose) (HPC) 92 % of control | [6] 103 % of control | dose: 200.0 mg/kg/injection, schedule: Q04DX003 (ip), vehicle: Klucel (hydroxypropylcellulose) (HPC) 91 % of control | [8] 100 % of control | dose: 400.0 mg/kg/injection, schedule: Q04DX003 (ip), vehicle: Klucel (hydroxypropylcellulose) (HPC) 92 % of control

O=C(Nc1ccccc1)c1nccc2ccccc12
inactive: dose: 100.0 mg/kg/injection, schedule: Q01DX001 (ip), vehicle: steriod suspending solution 117 % of control | dose: 200.0 mg/kg/injection, schedule: Q01DX001 (ip), vehicle: steriod suspending solution 109 % of control | dose: 400.0 mg/kg/injection, schedule: Q01DX001 (ip), vehicle: steriod suspending solution 108 % of control

O=C(N/N=C/c1ccccc1O)c1ccccc1O
inactive: [5] 95 % of control | [7] 92 % of control | [9] 93 % of control

CC(=O)c1ccc(OCc2ccccc2)cc1O
inactive: dose: 100.0 mg/kg/injection, schedule: Q01DX009 (ip), vehicle: saline 111 % of control | dose: 200.0 mg/kg/injection, schedule: Q01DX009 (ip), vehicle: saline 100 % of control | dose: 400.0 mg/kg/injection, schedule: Q01DX009 (ip), vehicle: saline 100 % of control

From PubChem BioAssay AID248 (DTP/NCI, 2004)
